Results taken from patent US20260274830A1, “DEUTERIUM-SUBSTITUTED PYRIDAZINE BENZOTHIOPHENE COMPOUND AND USE THEREOF” (MEDSHINE DISCOVERY INC., priority 2022, published 2026).

Columns and labels:
[1] = Pharmacokinetic evaluation in beagle dogs in vivo; design: species or system beagle dog
Method: The pharmacokinetic characteristics of the compound in beagle dogs after oral administration were tested according to the standard protocol. In the experiment, the candidate compound was formulated into clear solutions, and a single intravenous injection and oral administration were given to beagle dogs. The vehicle for intravenous injection and oral administration was a mixed vehicle composed of 5% dimethyl sulfoxide and 95% solutol with a content of 5%. Four male beagle dogs were used in this project. Two beagle dogs were administered via intravenous injections at a dose of 1 mg/kg, and plasma samples were collected at 0.083, 0.25, 0.5, 1, 2, 4, 8, and 24 h post-administration. The other two beagle dogs were administered orally by gavage at a dose of 2 mg/kg, and plasma samples were collected at 0.25, 0.5, 1, 2, 4, 8, and 24 h post-administration. Plasma concentrations were quantitatively analyzed by LC-MS/MS analysis method, and pharmacokinetic parameters such as peak concentration (Cmax), clearance (CL), half-life (T1/2), volume of distribution at steady state (Vdss), area under the drug-time curve (AUC0-last), and bioavailability (F) were calculated.

NLRP3 = molecular target: T1, NLRP3 (Rattus norvegicus, UniProt D4A523); test: LPS-stimulated IL-1β release assay in rat primary microglia; type: cell-based; conditions: LPS 50 ng/ml 3 h, compound 0.5 h, Nigericin 0.3 μg/mL 1 h, IL-1β ELISA
T1 construct: Newborn SD rats were used to obtain mixed glial cells from the cerebral cortex; endogenous in cells; host or cells: primary microglia from the cerebral cortex of newborn SD rats, LPS-primed, nigericin-stimulated
T1 sequence (D4A523 whole entry): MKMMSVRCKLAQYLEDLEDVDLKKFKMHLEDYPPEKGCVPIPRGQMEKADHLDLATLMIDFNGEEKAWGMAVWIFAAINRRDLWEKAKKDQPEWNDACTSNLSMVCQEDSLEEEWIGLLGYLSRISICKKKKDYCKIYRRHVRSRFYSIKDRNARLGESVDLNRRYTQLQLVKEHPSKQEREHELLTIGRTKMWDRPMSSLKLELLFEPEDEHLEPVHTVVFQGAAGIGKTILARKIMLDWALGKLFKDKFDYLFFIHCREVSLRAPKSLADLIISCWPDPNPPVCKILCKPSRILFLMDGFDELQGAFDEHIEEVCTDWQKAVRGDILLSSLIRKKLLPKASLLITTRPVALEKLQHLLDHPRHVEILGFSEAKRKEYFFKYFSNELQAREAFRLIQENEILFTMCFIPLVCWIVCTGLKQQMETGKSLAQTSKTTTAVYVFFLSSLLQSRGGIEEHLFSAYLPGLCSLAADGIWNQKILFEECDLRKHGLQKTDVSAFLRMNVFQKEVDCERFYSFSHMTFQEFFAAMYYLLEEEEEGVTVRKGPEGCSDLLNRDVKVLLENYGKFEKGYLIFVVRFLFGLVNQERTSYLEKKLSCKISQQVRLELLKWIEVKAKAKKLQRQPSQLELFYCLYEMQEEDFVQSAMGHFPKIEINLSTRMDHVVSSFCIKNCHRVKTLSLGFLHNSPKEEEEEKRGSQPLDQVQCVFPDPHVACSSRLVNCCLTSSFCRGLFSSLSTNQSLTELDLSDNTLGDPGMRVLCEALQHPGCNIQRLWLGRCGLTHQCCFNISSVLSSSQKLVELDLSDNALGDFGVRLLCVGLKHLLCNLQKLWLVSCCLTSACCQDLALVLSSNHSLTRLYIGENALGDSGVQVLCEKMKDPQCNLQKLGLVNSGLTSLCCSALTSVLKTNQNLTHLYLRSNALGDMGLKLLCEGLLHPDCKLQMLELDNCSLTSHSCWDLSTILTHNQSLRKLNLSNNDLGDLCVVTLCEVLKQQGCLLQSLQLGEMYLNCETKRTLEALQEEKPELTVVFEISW

[2] = Pharmacokinetic evaluation in SD rats in vivo; design: species or system SD rat
Method: (§1) The pharmacokinetic characteristics of the compound in rodents after intravenous injection and oral administration were tested according to the standard protocol. In the experiment, the candidate compound was formulated into clear solutions, and a single intravenous injection and oral administration were given to SD rats. The vehicle for intravenous injection and oral administration was a mixed vehicle composed of 5% dimethyl sulfoxide and 95% solutol with a content of 5%. Four male SD rats were used in this project. Two SD rats were administered via intravenous injections, and plasma samples were collected at 0.083, 0.25, 0.5, 1, 2, 4, 8, and 24 h post-administration. The other two SD rats were administered orally by gavage, and plasma samples were collected at 0.25, 0.5, 1, 2, 4, 8, and 24 h post-administration. Plasma concentrations were quantitatively analyzed by LC-MS/MS analysis method, and pharmacokinetic parameters such as peak concentration (Cmax), clearance (CL), half-life (T1/2), volume of distribution at steady state (Vdss), area under the drug-time curve (AUC0-last), and bioavailability (F) were calculated.
as §1, with “injections at a dose of 2 mg/kg,” for “injections,”, “gavage at a dose of 10 mg/kg,” for “gavage,”

[3] = IV and PO, oral bioavailability, oral exposure, half-life, clearance

pharmacokinetic properties in beagle dogs in vivo (in words) [1, 3]: good pharmacokinetic properties
AUC(0-t) ([1]; male, dog, plasma, IV 1 mg/kg, read-out: Area under drug-time curve AUC0-last IV): 1.92 µM·h
clearance ([1]; male, dog, plasma, IV 1 mg/kg, read-out: Clearance CL): 25.7 mL/min/kg
half-life ([1]; male, dog, plasma, IV 1 mg/kg, read-out: Half-life T1/2 (IV) (converted)): 212 min
Vd ([1]; male, dog, plasma, IV 1 mg/kg, read-out: Volume of distribution at steady state Vdss): 6.9 L/kg
bioavailability ([1]; male, dog, plasma, PO 2 mg/kg vs IV 1 mg/kg, read-out: Bioavailability F): 80.9%
AUC(0-t) ([1]; male, dog, plasma, PO 2 mg/kg, read-out: Area under drug-time curve AUC0-last PO): 3.11 µM·h
Cmax ([1]; male, dog, plasma, oral gavage 2 mg/kg (route not given), read-out: Peak concentration Cmax): 504 nM
IC50 (NLRP3): 35.8 nM
pharmacokinetic properties in SD rats in vivo (in words) [2, 3]: good pharmacokinetic properties
AUC(0-t) ([2]; male, rat, plasma, IV 2 mg/kg, read-out: Area under drug-time curve AUC0-last IV): 1.87 µM·h
clearance ([2]; male, rat, plasma, IV 2 mg/kg, read-out: Clearance CL): 47.4 mL/min/kg
half-life ([2]; male, rat, plasma, IV 2 mg/kg, read-out: Half-life T1/2 (IV) (converted)): 109 min
Vd ([2]; male, rat, plasma, IV 2 mg/kg, read-out: Volume of distribution at steady state Vdss): 6.99 L/kg
bioavailability ([2]; male, rat, plasma, PO 10 mg/kg vs IV 2 mg/kg, read-out: Bioavailability F): 27.1%
AUC(0-t) ([2]; male, rat, plasma, PO 10 mg/kg, read-out: Area under drug-time curve AUC0-last PO): 2.35 µM·h
Cmax ([2]; male, rat, plasma, oral gavage 10 mg/kg (route not given), read-out: Peak concentration Cmax): 593 nM
SMILES: [2H]C([2H])([2H])N1CCC[C@@H](Nc2cc(C)c(-c3ccc4sccc4c3O)nn2)C1 [Compound II]
